Results reported in PubChem BioAssay (NCI).
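Growth conditions: 96-well plates. Treatment: test compound, 48 hours, 5 concentrations. Analysis: linear interpolation between bracketing concentrations; unreached endpoints set to highest concentration. Definition used: TGI = concentration required for complete inhibition of growth.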

Tests used:
Experiment in all cases: growth of human tumour cells (NCI), 48 h
M19-MEL melanoma = system: M19-MEL melanoma
A498 renal = system: A498 renal
DLD-1 colon = system: DLD-1 colon
SW-620 colon = system: SW-620 colon
IGROV1 ovarian = system: IGROV1 ovarian
SK-OV-3 ovarian = system: SK-OV-3 ovarian
SN12C renal = system: SN12C renal
SNB-19 CNS = system: SNB-19 CNS
HCT-15 colon = system: HCT-15 colon
RXF 393 renal = system: RXF 393 renal
HOP-92 NSCLC = system: HOP-92 NSCLC
OVCAR-4 ovarian = system: OVCAR-4 ovarian
OVCAR-5 ovarian = system: OVCAR-5 ovarian
U251 CNS = system: U251 CNS
SR leukemia = system: SR leukemia
DMS 273 small cell lung = system: DMS 273 small cell lung
KM20L2 colon = system: KM20L2 colon
OVCAR-3 ovarian = system: OVCAR-3 ovarian
SK-MEL-5 melanoma = system: SK-MEL-5 melanoma
LXFL 529 NSCLC = system: LXFL 529 NSCLC
KM12 colon = system: KM12 colon
SNB-78 CNS = system: SNB-78 CNS
MOLT-4 leukemia = system: MOLT-4 leukemia
A549 NSCLC = system: A549 NSCLC
NCI-H522 lung = system: NCI-H522 lung
SK-MEL-2 melanoma = system: SK-MEL-2 melanoma
NCI-H23 lung = system: NCI-H23 lung
SNB-75 CNS = system: SNB-75 CNS
COLO 205 colon = system: COLO 205 colon
786-0 renal = system: 786-0 renal
EKVX NSCLC = system: EKVX NSCLC
HOP-18 NSCLC = system: HOP-18 NSCLC
LOX IMVI melanoma = system: LOX IMVI melanoma
RPMI-8226 leukemia = system: RPMI-8226 leukemia
K-562 leukemia = system: K-562 leukemia
SF-268 CNS = system: SF-268 CNS
CAKI-1 renal = system: CAKI-1 renal
UACC-257 melanoma = system: UACC-257 melanoma
NCI-H460 lung = system: NCI-H460 lung
SF-539 CNS = system: SF-539 CNS
HL-60(TB) leukemia = system: HL-60(TB) leukemia
SK-MEL-28 melanoma = system: SK-MEL-28 melanoma
MALME-3M melanoma = system: MALME-3M melanoma
HOP-62 NSCLC = system: HOP-62 NSCLC
OVCAR-8 ovarian = system: OVCAR-8 ovarian
DMS 114 small cell lung = system: DMS 114 small cell lung
UO-31 renal = system: UO-31 renal
XF 498 CNS = system: XF 498 CNS
ACHN renal = system: ACHN renal
CCRF-CEM leukemia = system: CCRF-CEM leukemia
TK-10 renal = system: TK-10 renal
M14 melanoma = system: M14 melanoma
SF-295 CNS = system: SF-295 CNS
UACC-62 melanoma = system: UACC-62 melanoma
NCI-H226 lung = system: NCI-H226 lung
HCT-116 colon = system: HCT-116 colon
HT29 colon = system: HT29 colon
HCC-2998 colon = system: HCC-2998 colon

Measured: TGI

Nc1nc(=S)[nH]c(C(=O)Nc2nccs2)c1-c1ccccc1
> 100 µM: all assays above

COc1ccc2c(c1)[n+](=O)c(C(C)=O)c(C)n2[O-]
not listed: A498 renal | SR leukemia | DMS 273 small cell lung | KM20L2 colon | SNB-75 CNS | CCRF-CEM leukemia
> 100 µM: all other assays above
